Experimental data from ChEMBL document CHEMBL3877251, “Synthesis and biological evaluation of a series of N-alkylated imidazole alkanoic acids as mGAT3 selective GABA uptake inhibitors” (Eur J Med Chem, 2016).

How the values were obtained:
Assay type in all cases: cell-based
[1] = target: Sodium- and chloride-dependent GABA transporter 1 (Mus musculus) (UniProt P31648); experiment: Inhibition of mouse GAT1 expressed in HEK293 cells assessed as decrease in [3H]GABA uptake at 100 uM preincubated for 25 mins followed by [3H]GABA addition measured after 4 mins by liquid scintillation counter method
[2] = target: T1, GABA transporter 2 (Mus musculus) (UniProt P31651); experiment: Inhibition of mouse GAT2 expressed in HEK293 cells assessed as decrease in [3H]GABA uptake at 100 uM preincubated for 25 mins followed by [3H]GABA addition measured after 10 mins by liquid scintillation counter method
T1 sequence (whole entry): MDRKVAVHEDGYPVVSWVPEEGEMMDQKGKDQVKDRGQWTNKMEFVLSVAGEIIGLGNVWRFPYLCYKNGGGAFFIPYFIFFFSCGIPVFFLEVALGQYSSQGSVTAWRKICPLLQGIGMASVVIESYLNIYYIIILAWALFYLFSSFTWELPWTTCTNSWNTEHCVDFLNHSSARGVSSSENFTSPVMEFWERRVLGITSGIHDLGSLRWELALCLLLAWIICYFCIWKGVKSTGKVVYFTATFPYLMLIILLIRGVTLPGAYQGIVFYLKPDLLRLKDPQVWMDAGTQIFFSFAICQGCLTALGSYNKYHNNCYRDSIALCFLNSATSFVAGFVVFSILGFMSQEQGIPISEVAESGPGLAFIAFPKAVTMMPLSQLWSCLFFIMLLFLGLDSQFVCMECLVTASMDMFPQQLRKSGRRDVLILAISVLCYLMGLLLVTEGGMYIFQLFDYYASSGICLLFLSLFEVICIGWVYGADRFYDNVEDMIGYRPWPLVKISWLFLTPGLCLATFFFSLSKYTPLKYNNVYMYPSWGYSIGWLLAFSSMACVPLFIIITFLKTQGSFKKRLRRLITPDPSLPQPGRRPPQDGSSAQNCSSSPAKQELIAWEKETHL

[3] = target: T2, GABA transporter 3 (Mus musculus) (UniProt P31649); experiment: Inhibition of mouse GAT3 expressed in HEK293 cells assessed as decrease in [3H]GABA uptake at 100 uM preincubated for 25 mins followed by [3H]GABA addition measured after 4 mins by liquid scintillation counter method
T2 sequence (whole entry): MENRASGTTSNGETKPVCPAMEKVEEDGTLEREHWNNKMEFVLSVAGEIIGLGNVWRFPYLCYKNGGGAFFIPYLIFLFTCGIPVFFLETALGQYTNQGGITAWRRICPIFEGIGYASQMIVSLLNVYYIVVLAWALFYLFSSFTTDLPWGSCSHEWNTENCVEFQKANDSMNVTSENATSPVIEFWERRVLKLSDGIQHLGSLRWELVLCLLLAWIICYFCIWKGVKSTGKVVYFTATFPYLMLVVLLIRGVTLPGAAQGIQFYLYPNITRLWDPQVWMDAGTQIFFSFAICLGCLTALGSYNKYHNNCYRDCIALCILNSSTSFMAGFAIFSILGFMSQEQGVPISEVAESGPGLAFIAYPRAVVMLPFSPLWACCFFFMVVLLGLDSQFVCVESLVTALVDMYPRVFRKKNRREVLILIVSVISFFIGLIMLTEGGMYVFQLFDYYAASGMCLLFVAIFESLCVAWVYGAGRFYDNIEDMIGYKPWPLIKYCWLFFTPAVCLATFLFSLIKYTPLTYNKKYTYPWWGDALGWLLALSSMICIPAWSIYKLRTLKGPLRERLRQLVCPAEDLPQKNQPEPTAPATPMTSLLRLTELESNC

[4] = target: T3, GABA transporter 4 (Mus musculus) (UniProt P31650); experiment: Inhibition of mouse GAT4 expressed in HEK293 cells assessed as decrease in [3H]GABA uptake at 100 uM preincubated for 25 mins followed by [3H]GABA addition measured after 4 mins by liquid scintillation counter method
T3 sequence (whole entry): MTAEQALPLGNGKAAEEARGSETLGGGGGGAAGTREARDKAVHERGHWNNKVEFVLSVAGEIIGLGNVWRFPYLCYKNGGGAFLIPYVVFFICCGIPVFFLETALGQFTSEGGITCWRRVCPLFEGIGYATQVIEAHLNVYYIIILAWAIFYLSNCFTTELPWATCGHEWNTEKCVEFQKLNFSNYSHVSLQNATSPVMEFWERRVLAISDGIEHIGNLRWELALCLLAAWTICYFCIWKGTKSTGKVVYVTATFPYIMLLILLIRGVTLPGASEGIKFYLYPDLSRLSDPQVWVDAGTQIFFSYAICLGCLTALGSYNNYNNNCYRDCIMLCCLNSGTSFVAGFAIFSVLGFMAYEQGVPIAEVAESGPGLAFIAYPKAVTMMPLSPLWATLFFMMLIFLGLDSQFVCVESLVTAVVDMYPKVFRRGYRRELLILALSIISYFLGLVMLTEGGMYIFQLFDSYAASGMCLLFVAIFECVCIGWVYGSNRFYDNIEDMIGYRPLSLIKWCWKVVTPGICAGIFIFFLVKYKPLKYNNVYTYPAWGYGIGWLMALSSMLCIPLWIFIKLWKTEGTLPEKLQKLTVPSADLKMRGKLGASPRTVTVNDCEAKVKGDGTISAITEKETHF

[5] = target: Sodium- and chloride-dependent GABA transporter 1 (Mus musculus, UniProt P31648); experiment: Inhibition of mouse GAT1 expressed in HEK293 cells assessed as decrease in [3H]GABA uptake preincubated for 25 mins followed by [3H]GABA addition measured after 4 mins by liquid scintillation counter method
GABA transporter 2 = target: T4, GABA transporter 2 (Mus musculus, UniProt P31651); experiment: Inhibition of mouse GAT2 expressed in HEK293 cells assessed as decrease in [3H]GABA uptake preincubated for 25 mins followed by [3H]GABA addition measured after 10 mins by liquid scintillation counter method
T4 sequence (P31651 whole entry): T1 sequence (whole entry)

GABA transporter 3 = target: T5, GABA transporter 3 (Mus musculus, UniProt P31649); experiment: Inhibition of mouse GAT3 expressed in HEK293 cells assessed as decrease in [3H]GABA uptake preincubated for 25 mins followed by [3H]GABA addition measured after 4 mins by liquid scintillation counter method
T5 sequence (P31649 whole entry): T2 sequence (whole entry)

GABA transporter 4 = target: T6, GABA transporter 4 (Mus musculus, UniProt P31650); experiment: Inhibition of mouse GAT4 expressed in HEK293 cells assessed as decrease in [3H]GABA uptake preincubated for 25 mins followed by [3H]GABA addition measured after 4 mins by liquid scintillation counter method
T6 sequence (P31650 whole entry): T3 sequence (whole entry)

[6] = target: T7, Sodium- and chloride-dependent betaine transporter (Homo sapiens, UniProt P48065); experiment: Inhibition of human BGT-1 expressed in thymidine kinase deficient mouse LM cells assessed as decrease in [3H]GABA uptake after 10 mins by scintillation counter method
T7 sequence (P48065 whole entry): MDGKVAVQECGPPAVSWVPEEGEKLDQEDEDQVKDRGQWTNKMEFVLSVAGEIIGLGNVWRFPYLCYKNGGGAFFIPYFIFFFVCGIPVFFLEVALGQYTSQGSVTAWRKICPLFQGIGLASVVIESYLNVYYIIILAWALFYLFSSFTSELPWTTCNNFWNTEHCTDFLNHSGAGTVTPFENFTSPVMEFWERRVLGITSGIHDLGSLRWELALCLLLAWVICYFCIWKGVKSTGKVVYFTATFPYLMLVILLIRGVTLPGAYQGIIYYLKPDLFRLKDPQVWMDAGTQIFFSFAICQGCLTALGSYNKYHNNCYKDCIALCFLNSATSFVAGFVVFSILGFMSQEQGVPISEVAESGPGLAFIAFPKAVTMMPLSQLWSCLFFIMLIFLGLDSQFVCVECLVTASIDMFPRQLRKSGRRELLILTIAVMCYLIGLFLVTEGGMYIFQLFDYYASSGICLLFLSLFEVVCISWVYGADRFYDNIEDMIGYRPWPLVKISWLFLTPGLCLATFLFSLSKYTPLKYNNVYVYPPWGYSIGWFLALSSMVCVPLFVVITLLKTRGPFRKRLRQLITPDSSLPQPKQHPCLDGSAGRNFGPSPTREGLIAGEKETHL

Row | SMILES | inhibition [1] [%] | inhibition [2] [%] | inhibition [3] [%] | inhibition [4] [%] | IC50 [5] [µM] | IC50 (GABA transporter 2) [µM] | IC50 (GABA transporter 3) [µM] | IC50 (GABA transporter 4) [µM] | IC50 [6] [µM]
1 | COc1ccc(C2(OCCn3cnc(CC(=O)O)c3)c3ccccc3-c3ccccc32)cc1 | 56.6 | 44 | 46.7 | 85.4 |  |  |  |  | 
2 | COc1ccc(C2(OCCCn3cnc(CC(=O)O)c3)c3ccccc3-c3ccccc32)cc1 | 84.2 |  | 51.4 | 61.4 |  | 97.7 |  |  | 
3 | Cc1ccsc1C(=CCCN1CCC[C@@H](C(=O)O)C1)c1sccc1C |  | 52 | 64 | 73 |  |  |  |  | 
4 | COc1ccc(C2(OCCN3CCCC(C(=O)O)C3)c3ccccc3-c3ccccc32)cc1 (stereo not drawn) | 73.1 | 66.3 |  |  |  |  | 93.3 | 30.2 | 27
5 | COc1ccc(C2(OCCn3cncc3CC(=O)O)c3ccccc3-c3ccccc32)cc1 | 67.2 | 57.9 | 50.8 | 46 |  |  |  |  | 
6 | COc1ccc(C2(/C=C/Cn3cncc3CC(=O)O)c3ccccc3-c3ccccc32)cc1 |  |  |  |  | 126 | 166 | 79.4 | 110 | 
7 | COc1ccc(C2(OCCCCn3cnc(CC(=O)O)c3)c3ccccc3-c3ccccc32)cc1 | 64.9 |  |  |  |  | 24 | 39.8 | 49 | 
8 | COc1ccc(C2(OCCCCn3cncc3CC(=O)O)c3ccccc3-c3ccccc32)cc1 | 70.8 |  | 41.7 | 59 |  | 22.9 |  |  | 
9 | COc1ccc(C2(OCCCCCn3cncc3CC(=O)O)c3ccccc3-c3ccccc32)cc1 |  | 38.5 | 68 | 77.4 | 79.4 |  |  |  | 
10 | O=C(O)CCc1ncc[nH]1 | 62.8 |  |  |  |  | 525 | 28.8 | 309 | 
11 | O=C(O)/C=C/c1ncc[nH]1 | 73.7 | 77.3 |  | 47.2 |  |  |  |  | 
12 | COc1ccc(C2(/C=C/Cn3cnc(CC(=O)O)c3)c3ccccc3-c3ccccc32)cc1 | 62.4 | 24.2 |  |  |  |  | 47.9 | 39.8 | 
13 | O=C(O)CCc1nccn1CCC=C(c1ccccc1)c1ccccc1 |  |  | 48.1 | 53.7 | 74.1 | 58.9 |  |  | 
14 | COc1ccc(C2(OCCCn3cncc3CC(=O)O)c3ccccc3-c3ccccc32)cc1 | 50.1 | 70.1 |  | 55.6 |  |  | 81.3 |  | 
15 | COc1ccc(C2(OCCCCCn3cnc(CC(=O)O)c3)c3ccccc3-c3ccccc32)cc1 | 72.7 |  |  |  |  | 61.7 | 97.7 | 105 | 

Results, then the compound that gave them:

Row | inhibition [1] [%] | inhibition [2] [%] | inhibition [3] [%] | inhibition [4] [%] | IC50 [5] [µM] | IC50 (GABA transporter 2) [µM] | IC50 (GABA transporter 3) [µM] | IC50 (GABA transporter 4) [µM] | IC50 [6] [µM] | SMILES
16 |  |  |  |  | 26.3 | 30.9 | 24.5 | 21.9 |  | COc1ccc(C2(/C=C/COCCn3ccnc3CCC(=O)O)c3ccccc3-c3ccccc32)cc1
17 |  |  |  |  | 11.7 | 12.6 | 23.4 | 29.5 |  | COc1ccc(C2(OCCCCCn3ccnc3CCC(=O)O)c3ccccc3-c3ccccc32)cc1
18 |  | 48.3 |  | 50.7 | 37.2 |  | 28.2 |  |  | COc1ccc(C2(OCCOCCn3ccnc3CCC(=O)O)c3ccccc3-c3ccccc32)cc1
19 | 55.8 |  | 43.9 | 61.4 |  | 32.4 |  |  |  | COc1ccc(C2(OC/C=C/Cn3ccnc3CCC(=O)O)c3ccccc3-c3ccccc32)cc1
20 |  |  |  |  | 141 | 25.1 | 87.1 | 174 |  | COc1ccc(C2(OCCCCn3ccnc3CCC(=O)O)c3ccccc3-c3ccccc32)cc1
21 |  | 31.2 | 48.6 | 55.4 | 100 |  |  |  |  | COc1ccc(C2(OCCCn3ccnc3CCC(=O)O)c3ccccc3-c3ccccc32)cc1
22 | 48.5 |  |  |  |  | 25.1 | 35.5 | 43.7 |  | COc1ccc(C2(/C=C/Cn3ccnc3CCC(=O)O)c3ccccc3-c3ccccc32)cc1
23 |  |  |  |  | 70.8 | 37.2 | 15.8 | 13.2 |  | COc1ccc(C2(OC/C=C\Cn3ccnc3CCC(=O)O)c3ccccc3-c3ccccc32)cc1
24 |  |  |  |  | 12.6 | 28.8 |  | 10.2 |  | COc1ccc(C2(OCCCCCn3ccnc3/C=C/C(=O)O)c3ccccc3-c3ccccc32)cc1
25 | 64.8 | 53 | 43.2 | 58.3 |  |  |  |  |  | COc1ccc(C2(OCCn3ccnc3CCC(=O)O)c3ccccc3-c3ccccc32)cc1
